Measured values reported in the CheMixHub ionic liquid set.

Test: xn = mol fraction of the nth substance listed
Conditions: for electrical conductivity: 100 kPa

CCCCCCCC(=O)[O-].c1c[nH+]c[nH]1 + CCO
101.3 kPa
Conditions	viscosity [mPa·s]
293.15 K, x2 = 0.1984	53.79
293.15 K, x2 = 0.301	40.4
293.15 K, x2 = 0.5999	14.5
298.15 K, x2 = 0.8989	2.949
303.15 K, x2 = 0.1043	45
303.15 K, x2 = 0.5999	12
303.15 K, x2 = 0.8989	2.686
313.15 K, x2 = 0	36.92
313.15 K, x2 = 0.301	21.5
313.15 K, x2 = 0.5999	9.9
313.15 K, x2 = 0.7006	6.9
318.15 K, x2 = 0.5999	9
318.15 K, x2 = 0.8989	2.125

CC[n+]1ccn(CCOC)c1.O=S(=O)([O-])C(F)(F)F + CCO
101 kPa
Conditions	viscosity [mPa·s]
288.15 K, x1 = 0.2996	7.66
293.15 K, x1 = 0.699	35.3
293.15 K, x1 = 0.797	47.3
293.15 K, x1 = 0.899	64.4
298.15 K, x1 = 0.1999	3.6
298.15 K, x1 = 0.797	38.9
303.15 K, x1 = 0.0996	1.934
303.15 K, x1 = 0.1999	3.231
303.15 K, x1 = 1	57.9
308.15 K, x1 = 0.603	14.85
308.15 K, x1 = 0.797	26.79
308.15 K, x1 = 0.899	37.34
313.15 K, x1 = 0.797	22.71
318.15 K, x1 = 0.797	19.43

CCCCn1cc[n+](C)c1.[Cl][Fe-]([Cl])([Cl])[Cl] + CCOC(C)=O
101 kPa
Conditions	viscosity [mPa·s]
293.15 K, x1 = 0.6001	16.31
298.15 K, x1 = 0.7973	26.3
298.15 K, x1 = 0.9	34.2
303.15 K, x1 = 0.6001	12.31
303.15 K, x1 = 0.7973	22.35
308.15 K, x1 = 0.1999	1.86
308.15 K, x1 = 0.3999	5.26
308.15 K, x1 = 0.6001	10.84
308.15 K, x1 = 0.7973	19.21
308.15 K, x1 = 1	31.9
313.15 K, x1 = 0.1999	1.75
313.15 K, x1 = 0.7973	16.68
318.15 K, x1 = 0.3007	2.76
318.15 K, x1 = 0.3999	4.34
318.15 K, x1 = 0.9	18.34

CC[S+](CC)CCOCCOCCOCC[S+](CC)CC.N#C[N-]C#N.N#C[N-]C#N + CC[n+]1ccn(C)c1.N#C[N-]C#N + O=S(=O)([N-]S(=O)(=O)C(F)(F)F)C(F)(F)F.[Li+]
x1 = 0.2479, x2 = 0.6613
Conditions	electrical conductivity [S/m]
298 K	0.454
303 K	0.548
313 K	0.811
323 K	1.09
333 K	1.4
343 K	1.78

NCC(O)CN + CC[n+]1ccn(C)c1.[Cl-]
101 kPa, x2 = 0.667
Conditions	viscosity [mPa·s]
298.15 K	280
303.15 K	200.3
313.15 K	108.2
323.15 K	58.3
333.15 K	38.3

CC[n+]1ccn(C)c1.COS(=O)(=O)[O-] + CN1CCCC1=O
101 kPa
Conditions	viscosity [mPa·s]
298.15 K, x2 = 0.8502	4.99
303.15 K, x2 = 0.3825	28
303.15 K, x2 = 0.5291	17.6
303.15 K, x2 = 0.9298	2.91
308.15 K, x1 = 0.0115	1.52
308.15 K, x2 = 0.6518	9.5
308.15 K, x2 = 0.718	6.8
313.15 K, x2 = 0.0861	38.1

NCCO + CN1CCCC1=O + CCCC[n+]1ccn(C)c1.O=S(=O)([N-]S(=O)(=O)C(F)(F)F)C(F)(F)F
viscosity [mPa·s], 101 kPa
Conditions	293.15 K	298.15 K	303.15 K	308.15 K	313.15 K	318.15 K	323.15 K	328.15 K	333.15 K
x1 = 0.1608, x2 = 0.8154	3.357	3.042	2.776	2.553	2.364	2.204	2.068	1.95	1.848
x1 = 0.2089, x2 = 0.7256	4.749	4.206	3.761	3.388	3.089	2.818	2.599	2.41	2.252
x1 = 0.2436, x2 = 0.6371	6.416	5.617	4.959	4.413	3.958	3.575	3.254	2.982	2.752

CCCCCC[n+]1ccn(C)c1.O=S(=O)([N-]S(=O)(=O)C(F)(F)F)C(F)(F)F + CN(C)C=O
298.15 K
Conditions	electrical conductivity [S/m]
x1 = 0.06572	0.9
x1 = 0.09821	1.1
x1 = 0.1404	1.2
x1 = 0.1968	1.4
x1 = 0.275	1.2

CCCCCC[n+]1ccn(C)c1.O=S(=O)([N-]S(=O)(=O)C(F)(F)F)C(F)(F)F + CN(CCO)CCO
101 kPa
Conditions	viscosity [mPa·s]
303.15 K, x2 = 0	58.3
303.15 K, x2 = 0.801	49.3
308.15 K, x2 = 0.0989	45.6
308.15 K, x2 = 0.3999	34
313.15 K, x2 = 0.3999	31.4
313.15 K, x2 = 0.6075	30
313.15 K, x2 = 0.899	36.2
318.15 K, x2 = 0.7049	25.3
323.15 K, x2 = 0.2977	24.1
323.15 K, x2 = 0.7049	22.9
